# Source: ChEMBL document CHEMBL4411258, “Novel natural compounds from endophytic fungi with anticancer activity” (Eur J Med Chem, 2018)
# pIC50: −log10 of the molar value.
# What was measured:
# T47D = assay: Cytotoxicity against human T47D cells after 48 hrs by MTT assay; assay type: functional, cell-based
# [1] = Cytotoxicity against human Tca8113 cells after 72 hrs by MTT assay; assay type: functional, cell-based
# MG-63 = assay: Cytotoxicity against human MG63 cells after 72 hrs by MTT assay; assay type: functional, cell-based; settings: MG-63, 72 h
# SMMC-7721 = assay: Cytotoxicity against human SMMC7721 cells by CCK8 assay; assay type: functional, cell-based
# SW480 = assay: Cytotoxicity against human SW480 cells by CCK8 assay; assay type: functional, cell-based
# A549 [2] = assay: Cytotoxicity against human A549 cells by CCK8 assay; assay type: functional, cell-based
# MCF7 [3] = assay: Cytotoxicity against human MCF7 cells by CCK8 assay; assay type: functional, cell-based
# HL-60 [4] = assay: Cytotoxicity against human HL60 cells by CCK8 assay; assay type: functional, cell-based
# MDA-MB-435 = assay: Cytotoxicity against human MDA-MB-435 cells after 72 hrs by MTT assay; assay type: functional, cell-based; settings: MDA-MB-435, 72 h
# HepG2 [5] = assay: Cytotoxicity against human HepG2 cells after 72 hrs by MTT assay; assay type: functional, cell-based; settings: HepG2, 72 h
# HCT-116 [6] = assay: Cytotoxicity against human HCT116 cells after 72 hrs by MTT assay; assay type: functional, cell-based; settings: HCT-116, 72 h
# K562 = assay: Cytotoxicity against human K562 cells by trypan blue exclusion assay; assay type: functional, cell-based
# HL-60 [7] = assay: Cytotoxicity against human HL60 cells by trypan blue exclusion assay; assay type: functional, cell-based
# SH-SY5Y = assay: Cytotoxicity against human SH-SY5Y cells by MTT assay; assay type: functional, cell-based
# L02 = assay: Cytotoxicity against human L02 cells by MTS assay; assay type: cell-based
# NB-4 = assay: Cytotoxicity against human NB4 cells by MTT assay; assay type: functional, cell-based
# HepG2 [8] = assay: Cytotoxicity against human HepG2 cells by MTT assay; assay type: functional, cell-based
# MCF7 [9] = assay: Cytotoxicity against human MCF7 cells by MTT assay; assay type: functional, cell-based
# PC-3 = assay: Cytotoxicity against human PC3 cells by MTT assay; assay type: functional, cell-based
# A549 [10] = assay: Cytotoxicity against human A549 cells by MTT assay; assay type: functional, cell-based
# [11] = molecular target: Polyunsaturated fatty acid 5-lipoxygenase (Homo sapiens) (UniProt P09917); assay: Inhibition of 5-LOX (unknown origin) at 30 ug/ml relative to control
# Polyunsaturated fatty acid 5-lipoxygenase (Homo sapiens), sequence (P09917 whole entry): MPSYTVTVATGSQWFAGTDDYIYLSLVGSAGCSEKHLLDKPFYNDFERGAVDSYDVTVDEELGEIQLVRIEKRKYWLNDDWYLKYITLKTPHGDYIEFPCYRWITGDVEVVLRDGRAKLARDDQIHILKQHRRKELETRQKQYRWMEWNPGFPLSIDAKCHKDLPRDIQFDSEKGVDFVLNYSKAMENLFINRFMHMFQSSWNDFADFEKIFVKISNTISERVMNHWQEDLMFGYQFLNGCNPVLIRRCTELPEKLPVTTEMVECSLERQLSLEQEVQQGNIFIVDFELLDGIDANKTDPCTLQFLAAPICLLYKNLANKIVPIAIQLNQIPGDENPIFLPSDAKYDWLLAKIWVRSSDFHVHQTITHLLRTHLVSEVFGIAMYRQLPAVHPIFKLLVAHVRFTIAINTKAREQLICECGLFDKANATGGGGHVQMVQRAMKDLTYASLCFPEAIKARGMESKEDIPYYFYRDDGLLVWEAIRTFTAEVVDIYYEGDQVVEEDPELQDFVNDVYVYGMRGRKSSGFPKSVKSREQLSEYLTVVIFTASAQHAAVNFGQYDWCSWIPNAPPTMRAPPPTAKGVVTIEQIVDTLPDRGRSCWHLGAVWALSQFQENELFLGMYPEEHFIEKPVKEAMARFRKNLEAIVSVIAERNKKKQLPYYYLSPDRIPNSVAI
# [12] = Inhibition of RANKL-induced NFkappaB (unknown origin) activation expressed in mouse RAW264.7 cells preincubated for 1 hr followed by RANKL stimulation and measured after 6 hrs by luciferase reporter gene based assay; assay type: cell-based
# HepG2 [13] = assay: Cytotoxicity against human HepG2 cells after 24 hrs by MTT assay; assay type: functional, cell-based; settings: HepG2, 24 h
# NCI-H460 = assay: Cytotoxicity against human NCI-H460 cells; assay type: functional, cell-based
# HCT-116 [14] = assay: Cytotoxicity against human HCT116 cells by MTT assay; assay type: functional, cell-based
# KB = assay: Cytotoxicity against human KB cells by MTT assay; assay type: functional, cell-based
# A2780 = assay: Cytotoxicity against human A2780 cells by MTT assay; assay type: functional, cell-based
# MKN-45 = assay: Cytotoxicity against human MKN45 cells after 24 hrs by MTT assay; assay type: functional, cell-based; settings: MKN-45, 24 h
# HL-60 [15] = assay: Cytotoxicity against human HL60 cells after 24 hrs by MTT assay; assay type: functional, cell-based; settings: HL-60, 24 h
# A549 [16] = assay: Cytotoxicity against human A549 cells after 24 hrs by MTT assay; assay type: functional, cell-based; settings: A549, 24 h
# LoVo = assay: Cytotoxicity against human LoVo cells after 24 hrs by MTT assay; assay type: functional, cell-based
# [17] = Inhibition of TNFalpha-induced NFkappaB (unknown origin) activation expressed in HEK293 cells after 6 hrs by luciferase reporter gene based assay; assay type: cell-based; settings: Homo sapiens, HEK293, 6 h
# MOLT-3 = assay: Cytotoxicity against human MOLT3 cells by XTT assay; assay type: functional, cell-based
# HeLa = assay: Cytotoxicity against human HeLa cells by MTT assay; assay type: functional, cell-based
# L5178Y = assay: Cytotoxicity against mouse L5178Y cells by MTT assay; assay type: functional, cell-based
# PC-12 = assay: Cytotoxicity against rat PC12 cells by MTT assay; assay type: functional, cell-based
structure (smiles),measurement,setting,value
CCCC[C@H](C)/C=C(C)/C=C/C(=O)O[C@@]1(C)C(=O)C=C2C=C(/C=C/C(=O)O)OC=C2C1=O,pIC50,T47D,5.00 to 6.00
C[C@@H]1CC[C@@H]2[C@@H](C)C(=O)O[C@@H]2[C@@]12C=C(CO)CC2,pIC50,[1],5.00
same,pIC50,MG-63,7.26
C=C1[C@@H](C)[C@H]2[C@H](Cc3ccccc3)NC(=O)[C@]23c2ccc(o2)CCC[C@@H](C)C/C=C/[C@H]3[C@@H]1O,pIC50,SMMC-7721,4.80 to 5.11
same,pIC50,SW480,4.80 to 5.11
same,pIC50,A549 [2],4.80 to 5.11
same,pIC50,MCF7 [3],4.80 to 5.11
same,pIC50,HL-60 [4],4.80 to 5.11
O=Cc1c(O)cc(O)cc1/C=C/c1ccc(O)cc1,pIC50,MDA-MB-435,> 4.30
same,pIC50,HepG2 [5],> 4.30
same,pIC50,HCT-116 [6],> 4.30
COc1cc(=O)oc(C)c1CCC(C)=O,IC50,K562,0.3 µg/mL
same,IC50,HL-60 [7],0.18 µg/mL
C=C1[C@@H](C)[C@H]2[C@H](Cc3ccccc3)NC(=O)[C@]23C(=O)/C=C/C(=O)CCC[C@@H](C)C/C=C/[C@H]3[C@@H]1O,pIC50,SMMC-7721,4.80 to 5.11
same,pIC50,SW480,4.80 to 5.11
same,pIC50,A549 [2],4.80 to 5.11
same,pIC50,MCF7 [3],4.80 to 5.11
same,pIC50,HL-60 [4],4.80 to 5.11
COC(=O)[C@]1(Cc2ccc(O)c(CC(C)=O)c2)OC(=O)C(O)=C1c1ccc(OC)cc1,pIC50,SH-SY5Y,> 5.00
same,pIC50,L02,> 5.00
same,pIC50,NB-4,> 5.00
same,pIC50,HepG2 [8],> 5.00
CC(C)(O)C(O)COc1ccc(CCO)cc1 (centres undefined),pIC50,[1],4.59
same,pIC50,MG-63,4.46
COC(=O)[C@@H]1c2c(oc3cc(CCO)cc(O)c3c2=O)C=C[C@H]1O,pIC50,SH-SY5Y,5.39
same,pIC50,MCF7 [9],5.19
same,pIC50,NB-4,5.66
same,pIC50,PC-3,5.55
same,pIC50,A549 [10],5.25
CCCCC/C=C/C1=C(CO)[C@@H](O)[C@H]2O[C@@]2(C/C=C(\C)C(=O)O)[C@H]1O,inhibition,[11],67.4%
COC(=O)c1cc(OC)cc2c1C(=O)[C@@H]([C@@H](O)CC(C)=O)CO2,pIC50,[12],4.34 to 4.52
CCCCc1c(OC)cc(=O)oc1CO,IC50,K562,0.9 µg/mL
same,IC50,HL-60 [7],0.45 µg/mL
O=Cc1cc(/C=C/c2cc(O)cc(O)c2C=O)ccc1O,pIC50,MDA-MB-435,> 4.30
same,pIC50,HepG2 [5],> 4.30
same,pIC50,HCT-116 [6],> 4.30
COc1ccc2c3c([nH]c2c1)C(C=C(C)C)N1C(=O)C2CCCN2C(=O)C1(OC)C3OC(=O)c1cc(O)cc(OC)c1C(=O)c1c(O)cc(C)cc1OC (centres undefined),pIC50,HepG2 [13],4.32
CC1(C)C=Cc2cc3c(cc2O1)NC(=O)[C@]31C[C@@]23NC(=O)[C@]4(CCCN4C2=O)C[C@@H]3C1(C)C,pIC50,NCI-H460,4.25
CC1=C2[C@@H](O)C[C@@]2(C)[C@@H]2C[C@@H]3CC[C@@H](C)[C@@]2(CC1)C3(C)C,pIC50,HCT-116 [14],4.60
same,pIC50,KB,4.60
C/C=C(\C)[C@H]1[C@@H](/C=C/C=C(\C)[C@@H](O)[C@@H](C)C(C)O)[C@@H]2C[C@@H](OC(=O)Cc3ccccc3)[C@](C)(O)C[C@H]2[C@@H]2O[C@@]21C (some centres undefined),pIC50,A2780,4.90
CC[C@@H](O)[C@H](O)[C@@H]1C[C@](O)(OC)CC(=O)O1,pIC50,MKN-45,> 3.70
same,pIC50,HL-60 [15],> 3.70
same,pIC50,A549 [16],> 3.70
same,pIC50,LoVo,> 3.70
CCCCC[C@@H]1OC2=C(C(=O)N(OC)C2C[S@+]([O-])C[C@@H](O)C(=O)O)[C@H](O)[C@@]1(C)O (some centres undefined),pIC50,[17],5.82
COC(=O)c1cc(OC)c(O)c2oc3c(c(=O)c12)[C@H](OC)O[C@@H](C)C3,pIC50,[12],4.34 to 4.52
C/C(=C\C=C\[C@H](O)[C@@H](C)O)[C@H](O)[C@H](C)C(=O)O[C@H]1C[C@H](C)C[C@@H]2C=C[C@H](C)[C@](C)(C(=O)CCO)[C@@H]12,IC50,MOLT-3,37.3 µg/mL
CCCCc1c(OC)cc(=O)oc1C,pIC50,HCT-116 [14],4.35
same,pIC50,HeLa,4.57
same,pIC50,A549 [10],4.41
CCCCCCCCCCC[C@@H](C)[C@@H]1CC(=O)N[C@@H]([C@H](C)O)C(=O)N[C@@H](C)C(=O)N[C@H](C)C(=O)N[C@@H](CCC(N)=O)C(=O)N[C@H](Cc2ccc(O)cc2)C(=O)N[C@@H]([C@@H](C)CC)C(=O)O1,pIC50,L5178Y,5.24
same,pIC50,PC-12,5.02
O=C1N[C@H](Cc2ccccc2)C(=O)N[C@H]1Cc1cn([C@]23C[C@H]4C(=O)N[C@H](Cc5ccccc5)C(=O)N4[C@H]2Nc2ccccc23)c2ccccc12,pIC50,A2780,4.25
